Results from article PMC10201669, “A novel coumarin derivative DBH2 inhibits proliferation and induces apoptosis of chronic myeloid leukemia cells” (Genes & Diseases, 2022).
Values after ≈ are worked out from the molar mass of the structure shown.

Legend:
[1] = system: CD34+ hematopoietic stem and progenitor cells (HSPCs); assay: CCK-8 cell viability assay (cytotoxicity), HSPCs; assay type: cell-based, human; conditions: CCK-8, 48 h; for IC50: Homo sapiens
From the text: (§1) Human CD34^+ HSCPs were obtained from the specimens of consenting healthy donors or CML patients at Xijing Hospital, and purified using Human Whole Blood CD34 Positive Selection Kit II (StemCell Technologies, China). Briefly, the human bone marrow was homogenized, and the top layering with Ficoll-Paque (GE Healthcare, USA) interphase containing immune cells and CD34^+ HSPCs was collected and washed with PBS, then CD34^+ HSPCs were purified according to the protocol of EasySep human CD34 positive selection kit (StemCell Technologies, China). CD34^+ cells were cultured in StemSpan-ACF medium II supplemented with 50 ng/mL human stem cell factor, 10 ng/mL thrombopoietin, 20 ng/mL FMS-related tyrosine kinase 3 ligand, 20 ng/mL interleukin-6 and 1% penicillin-streptomycin solution.
(§2) Cell viability was examined using the cell counting kit-8 (CCK-8) assay (YEASEN China). In brief, cells (1 × 10^4 cells/well) in confluent 96-well cell culture plates were treated with different concentrations of coumarin derivative (1, 5, 10, 25, 50, 100, 200, and 400 μg/mL) for 48 h. Then 10 μL CCK-8 reagents were added into every well for 2 h of incubation. Optical density (OD) was detected using the microplate reader (BioTek, Germany). The values were then fit into a non-linear regression curve and the IC50 was calculated using GraphPad Prism.

K562R cells = assay: CCK-8 cell viability assay, drug resistant K562 cells; assay type: cell-based, human; conditions: CCK-8, 48 h; for IC50: Homo sapiens, K-562R
Description: (§3) Human CML cell line K562 cells and human umbilical vein endothelial cells (HUVECs) were purchased from ATCC (Manassas, USA). Drug resistant K562 (K562R) cells were provided by the Chinese Academy of Medical Science Hematology Institute. The cells were cultured in RPMI-1640 medium containing 10% fetal bovine serum (FBS) in cell culture flasks under a humidified 5% CO2 and 95% air atmosphere at 37 °C. Bone marrow (BM) cells from mice or patients were cultured in DMEM/F12 medium supplemented with 20% FBS.
as §2

HUVECs = assay: CCK-8 cell viability assay (cytotoxicity), HUVECs; assay type: cell-based, human; conditions: CCK-8, 48 h; for IC50: Homo sapiens, HUVEC
Description: as §3, §2

K562 cells [2] = assay: CCK-8 cell viability assay, K562 cells; assay type: cell-based, human; conditions: CCK-8, 48 h; for IC50: Homo sapiens, K562
Description: as §3, §2

[3] = system: bone marrow myeloid cells from wild type mice; assay: Annexin V/PI apoptosis, bone marrow myeloid cells from WT mice (Fig 5); assay type: cell-based, mouse; conditions: WT, 50, 100, 200 μg/mL, 24 h
Description: (§4) Apoptotic cells were quantified with an FITC Annexin V Apoptosis detection kit (Becton Dickinson Biosciences, USA) according to manufacturer’s protocol. Briefly, cells at 1 × 10^5 cells/mL were incubated with various concentrations (50, 100 and 200 μg/mL) of compound DBH2 for 24 h at 37 °C. Cells were harvested and re-suspended in the binding buffer, then stained with 5 μL Annexin V-FITC and 5 μL propidium iodide (PI) for 15 min at room temperature in the dark. The apoptotic index was immediately determined by FACSCalibur Flow Cytometer (Becton Dickinson Biosciences, CA). For the cell cycle, K562 cells were harvested and fixed in 75% ethanol overnight at 4 °C, then re-suspended in pre-cooling PBS containing 0.1 mg/mL RNase and 0.02 mg/mL PI for 30 min at 37 °C. After the treatment of compound DBH2 or 1% DMSO as vehicle control, the cell cycle was analyzed using the flow cytometry and Cell Quest software (BD Biosciences, USA).
(§5) The SCL-tTA-BCR/ABL transgenic model mice were used as donor, and sub-lethally irradiated (850 rad) wild type mice were use as receiver, once the bone marrow transplantation (BMT) was performed from the donor mice to the recipient mice, the CML-like model mice was established. After 8 weeks, the bone marrow reconstitution was confirmed, and the effect of treatments to the survival rates of recipient mice was observed. […]

[4] = system: CML-like model mice (recipients of SCL-tTA-BCR/ABL bone marrow); assay: Survival of CML-like model mice after bone marrow transplantation; assay type: in vivo, mouse; conditions: DBH2 100 mg/kg, 32 days with two-day interval post-BMT, intragastric
Description: (§6) The SCL-tTA-BCR/ABL transgenic model mice were used as donor, and sub-lethally irradiated (850 rad) wild type mice were use as receiver, once the bone marrow transplantation (BMT) was performed from the donor mice to the recipient mice, the CML-like model mice was established. […] Caspase-3 knock-out mice were kindly gifted from the lab of Professor Hua Han, the Fourth Military Medical University.

PARP1 = assay: Western blot, PARP1 protein in K562 cells; assay type: cell-based, human; conditions: K562, 100 and 200 μg/mL, vs untreated control
Description: (§7) Cells were washed with Tris-buffered saline (TBS) and lysed by adding 100 μL of RIPA Lysis Buffer System containing protease inhibitors. Then, cell extraction was subjected to gel electrophoresis and transferred onto a polyvinylidene difluoride membrane (Millipore, Germany). After blocking with 3% BSA in TBS for 2 h, the membrane was probed with primary antibodies overnight at 4 °C, the antibody against PARP1 (Proteintech, USA) or ROCK1 proteins (Proteintech, USA) was diluted at 1:1000, and the antibody for GAPDH (Abcam, UK) was diluted at 1:1000. After secondary antibodies labeled with infrared dyes were added, the signals were visualized using the Odyssey Infrared Imaging System (Biosciences, USA).

[5] = system: bone marrow cells of recipients (BCR/ABL model mice); assay: Annexin V/PI apoptosis, bone marrow cells of BMT recipients, DBH2 with or without imatinib; assay type: cell-based, mouse; conditions: DBH2 at various concentrations with or without 1 μM imatinib
Description: as §6

[6] = system: bone marrow myeloid cells from caspase-3 gene knock-out mice; assay: Annexin V/PI apoptosis, bone marrow myeloid cells from caspase-3 knock-out mice; assay type: cell-based, mouse
Description: as §4, §5

K562 cells [7] = assay: Cell cycle distribution by flow cytometry, K562 cells; assay type: cell-based, human; conditions: K562, 100 μg/mL; vehicle 33.9%
Description: as §4

K562 cells [8] = assay: Transmission electron microscopy of K562 cells; assay type: cell-based, human; conditions: K562, 100 μg/mL, post 24 h
Description: CML cells were seeded and grown at […] in three flasks.

ROCK1 = assay: Western blot, ROCK1 protein in K562 cells; assay type: cell-based, human; conditions: K562, 50, 100, 200 μg/mL
Description: as §7

STAT5 = assay: Quantitative RT-PCR, STAT5 mRNA in K562 cells; assay type: cell-based, human; conditions: K562, 50, 100, 200 μg/mL
Description: (§8) RNA was extracted from cells using an RNA extraction kit according to the manufacturer protocol. After reverse transcription, the real-time PCR was performed for three independent experiments with a 7300 real-time PCR system (Applied Biosystems, USA) using SYBR Premix ExTaq (Takara, China). The relative expression of genes was calculated by the 2^-△△Ct method, with normalization to GAPDH levels. Amplified products were visualized with an Alpha Imager 2200 digital imaging system (Alpha Innotech, USA). The primers (forward and backward) used were depicted in Table S1.

[9] = system: bone marrow cells from SCL-tTA-BCR/ABL transgenic model mice; assay: Annexin V/PI apoptosis, bone marrow cells from SCL-tTA-BCR/ABL transgenic model mice; assay type: cell-based, mouse; conditions: 50, 100, 200 μg/mL
Description: as §3
as §4, with “For the cell cycle, K562 cells were harvested and fixed in 75% ethanol overnight at 4 °C, then re-suspended in pre-cooling PBS containing 0.1 mg/mL RNase and 0.02 mg/mL PI for 30 min at 37 °C.” left out, “USA). […]” for “USA).”

[10] = system: bone marrow cells from CML patients; assay: Annexin V/PI apoptosis, bone marrow cells from CML patients; assay type: cell-based, human
Description: as §3
The ages of three male CML patients […], all of them were newly diagnosed chronic phase, and before starting TKI therapy. Informed consent was obtained from all participants. This study adhered to the World Medical Association’s Declaration of Helsinki and its amendments for Ethical Human Research including confidentiality, privacy, and data management.
(§9) Apoptotic cells were quantified with an FITC Annexin V Apoptosis detection kit (Becton Dickinson Biosciences, USA) according to manufacturer’s protocol. […] The apoptotic index was immediately determined by FACSCalibur Flow Cytometer (Becton Dickinson Biosciences, CA). […] After the treatment of compound DBH2 or 1% DMSO as vehicle control, the cell cycle was analyzed using the flow cytometry and Cell Quest software (BD Biosciences, USA).

[11] = system: CD34+ LSCs from CML patients; assay: Apoptosis of CD34+ LSCs from CML patients; assay type: cell-based, human; conditions: 100 μg/mL, 24 h
From the text: as §1
as §9, with “protocol. Briefly, cells at 1 × 10^5 cells/mL were incubated with various concentrations (50, 100 and 200 μg/mL) of compound DBH2 for 24 h at 37 °C.” for “protocol.”

STAT3 = assay: Quantitative RT-PCR, STAT3 mRNA in K562 cells; assay type: cell-based, human; conditions: K562, 50, 100, 200 μg/mL
Description: as §8

K562 cells [12] = assay: Annexin V-FITC/PI flow cytometry, apoptosis of K562 cells; assay type: cell-based, human; conditions: 50, 100, 200 μg/mL, 24 h, vs vehicle
Description: as §4

[13] = system: human cervical cancer HeLa cells; parameters: method as in PMID 18210747; conditions: G0/G1 arrest and apoptosis; cited from earlier work

| SMILES | IC50 [1] [µg/mL] | IC50 (K562R cells) [µg/mL] | IC50 (HUVECs) [µg/mL] | IC50 (K562 cells [2]) [µg/mL] | also measured |
| --- | --- | --- | --- | --- | --- |
| O=c1oc2ccccc2c(O)c1C(c1ccccc1)c1c(O)c2ccccc2oc1=O [DBH1, 3,3′-benzylidene-bis-(4-hydroxycoumarin)] | 76.3 (≈ 185 µM) | 33.4 (≈ 81 µM) | 85.7 (≈ 208 µM) | 31.3 (≈ 75.8 µM) |  |
| O=c1oc2ccccc2c(O)c1C(c1cc(F)cc(F)c1)c1c(O)c2ccccc2oc1=O [DBH2, 3,3′-(3,5-difluorobenzylidene)-bis-(4-hydroxycoumarin)] | 225 (≈ 502 µM) | 38.8 (≈ 86.5 µM) | 232 (≈ 518 µM) | 36.3 (≈ 81 µM) | Annexin V positive cells [3]: increasing number of Annexin V positive cells; survival of treated mice [4]: remarkably prolonged about two times; expression of PARP1 protein (PARP1): up-regulate the expression of PARP1 significantly; number of apoptotic cells [5]: ascendant number of apoptotic cells; DBH2-induced apoptosis compared to the cells from wild type mice ([6]; caspase-3 knock-out vs WT): significant less; Annexin V positive cells ([6]; caspase-3 knock-out, 50, 100, 200 μg/mL, 24 h): increasing number of Annexin V positive cells; percentage of cells in the G2/M phase (K562 cells [7]): 41.3%; morphological observation (TEM) (K562 cells [8]): typical apoptotic-body in nuclear appeared; expression of ROCK1 protein (ROCK1): up-regulated the expression of ROCK1 in dose-dependent manner; expression of STAT5 mRNA (STAT5): inhibit the expression of STAT3 and STAT5 in a dose-dependent manner; apoptosis in bone marrow cells from CML model mice compared to WT mice [9]: induce the remarkable apoptosis; apoptosis of bone marrow cells from CML patients ([10]; 50, 100 and 200 μg/mL): promoted the apoptosis of bone marrow cells from CML patients in dose-dependent manner; induced apoptosis in bone marrow cells from CML patients compared to its effects on CD34+ LSC ([10]; bone marrow cells vs CD34+ LSC): almost twice fold; CD34+ LSCs developed into the apoptotic process [11]: more than twice fold; expression of STAT3 mRNA (STAT3): inhibit the expression of STAT3 and STAT5 in a dose-dependent manner; apoptosis in CML cells (K562) (K562 cells [12]): trigger significant apoptosis in CML cells with concentration-dependent responses |
| O=c1oc2ccccc2c(O)c1C(c1cc(Cl)cc(Cl)c1)c1c(O)c2ccccc2oc1=O [DBH3, 3,3′-(3,5-dichlorobenzylidene)-bis-(4-hydroxycoumarin)] | 72.4 (≈ 150 µM) | 45.7 (≈ 95 µM) | 52.3 (≈ 109 µM) | 36.5 (≈ 75.8 µM) |  |
| O=c1oc2ccccc2c(O)c1C(c1cc(Br)cc(Br)c1)c1c(O)c2ccccc2oc1=O [DBH4, 3,3′-(3,5-dibromobenzylidene)-bis-(4-hydroxycoumarin)] | 83.1 (≈ 146 µM) | 39.9 (≈ 69.9 µM) | 88.7 (≈ 155 µM) | 36.5 (≈ 64.1 µM) |  |
| COc1cc(OC)cc(C(c2c(O)c3ccccc3oc2=O)c2c(O)c3ccccc3oc2=O)c1 [DBH5, 3,3′-(3,5-dimethoxybenzylidene)-bis-(4-hydroxycoumarin)] | 46.4 (≈ 98.2 µM) | 34.4 (≈ 72.7 µM) | 50.3 (≈ 106 µM) | 30.4 (≈ 64.5 µM) |  |
| O=c1oc2ccccc2c(O)c1C(c1cc(C(F)(F)F)cc(C(F)(F)F)c1)c1c(O)c2ccccc2oc1=O [DBH6, 3,3′-(3,5-ditrifluoromethylbenzylidene)-bis-(4-hydroxycoum-arin)] |  |  |  |  | IC50, HSPCs [1]: 67.75 µg/mL (≈ 124 µM); IC50, K562 R cells (K562R cells): 35.68 µg/mL (≈ 65.1 µM); IC50, HUVECs (HUVECs): 72.42 µg/mL (≈ 132 µM); IC50, K562 cells (K562 cells [2]): 31.32 µg/mL (≈ 57.1 µM) |
| COc1cccc2c1C(=O)c1c(O)c3c(c(O)c1C2=O)C[C@@](O)(C(=O)CO)C[C@@H]3O[C@H]1C[C@H](N)[C@H](O)[C@H](C)O1 [Doxorubicin, reference compound] | 8.04 (≈ 14.8 µM) | 24.1 (≈ 44.4 µM) | 8.76 (≈ 16.1 µM) | 16.4 (≈ 30.2 µM) |  |
| O=c1ccc2ccccc2o1 [coumarin] |  |  |  |  | IC50 [13]: 54.2 µM |
